In patent US5908868A, “Retinol derivatives useful for enhancing immune response” (priority 1995, dated 1999):
Entries after “also recorded” stand apart in the source; their conditions may differ.

Key:
[1] = test system: fibroblasts; assay: Expression of immediate early genes; format: cell-based; settings: unpublished work
[2] = test system: lymph node T cells; assay: Proliferation of anti-CD3 activated lymph node T cells; format: cell-based, BALB/c mouse; settings: anti-CD3
From the text: (§1) Growth curves of lymph node T cells depleted of antigen-presenting cells (FIG. 17A) with and without 10^-6 M retinol at 2×10^5 and 5×10^4 cells/well. (FIG. 17B) Dose-responses elicited by different retinoids in cultures of lymph node T cells depleted of antigen-presenting cells. Also shown are the growth curves of CD4^+ (FIG. 17C) and CD8^+ T lymphocytes (FIG. 17D) in the presence of either retinol, 14HRR, human serum or in their absence.
(§2) T lymphocytes, purified as described, 5×10^4 well, were activated with immobilized anti-CD3 antibody in ITLB medium. The indicated amounts of retinoids or human serum were added at initiation of cultures. […] 14HRR was added every 12 hours. DNA synthesis was measured by a 4 hour pulse with tritiated thymidine. SDs were ≤17%.
Mature T cells were obtained from pooled intestinal, axillary, inguinal and submandibular lymph nodes of 4 to 10-week-old BALB/c mice. To fractionate cells into CD4 and CD8 subsets and at the same time remove APC, a combination of adherence and complement lysis was used as follows:
Cells were cultured in serum-free medium, referred to as ITLB, containing RPMI 1640 supplemented with 8×10^-7 M insulin (5 μg/ml), 7×10^-8 M transferrin (5 μg/ml), 2×10^-6 M linoleic acid, 2×10^-6 M delipidated BSA (0.12 mg/ml), 2 mM L-glutamine, 1 mM sodium pyruvate and antibiotics. They were seeded into 96-well flat-bottom plates at varying cellular densities in a final volume of 100 μl. In control experiments, cells were cultured in medium containing 10% FCS or 3% human serum and 5×10^-5 M 2 ME. T cells and thymocytes were activated with immobilized, purified anti-mab CD3e or by the addition of Con A in the presence or absence of different concentrations of retinoids. Unless indicated otherwise, retinoids were replenished every 12 hours to maintain a reasonably constant concentration of these labile compounds in culture. The optimal concentration for stimulation of T cells was determined for each batch of anti-CD3 mAb and Con A. The optimal range of Con A was particularly narrow in serum-free medium (0.5-0.2 μg/ml) and varied with the cell density used. […] Cultures were carried out in duplicate. Plates were incubated at 37° C. in a humidified 5% CO2 atmosphere. Cellular proliferation was determined by [^3 H] thymidine uptake (0.5 uCi/well; New England Nuclear, Boston, Mass.) after the incubation times indicated for each experiment with a 4 hour labeling pulse. Cells were harvested onto glass filter and [^3 H]TdR incorporation was determined by liquid scintillation counting. The data presented are the means of duplicate or six replicate cultures. The restriction to duplicate measurements was necessary to conserve scarce 14HRR. They were within 20% of each other. Each experiment was repeated at least twice.

[3] = test system: CD8+ T lymphocytes; assay: Proliferation of anti-CD3 plus IL-2 activated CD8+ T lymphocytes; format: cell-based, BALB/c mouse
From the text: as §1, §2
The cell suspension in a volume of 2 ml was applied to a nylon wool column (40) (0.6 g of washed nylon fibers in the barrel of a 10 ml syringe) and incubated at 37° C. for 40 min. The non-adherent cells were recovered by washing with warm serum-free medium at a flow rate of 1 ml/min. […] The success of the enrichment procedures was monitored cytofluorimetrically using FITC-conjugated anti-CD8 and PE-conjugated anti-CD4. […]

[4] = test system: EL-4; assay: Retinol metabolism; format: in vitro ADME, mouse
Protocol: (§3) FBS. The FBS was preincubated at room temperature with 14.4 uCi [^3 H
(§4) retinol (NEN) for 4 h. The cell pellet was washed twice with PBS. The
(§5) retinoid were extracted according to MClean et al. 90 and separated on an
(§6) analytical c18 reverse phase column according to FIG. 7. The DPM wer
(§7) determined using an online scintillation counter.

[5] = test system: SLA; assay: Retinol metabolism; format: in vitro ADME, mouse
Protocol: as §3, §4, §5, §6, §7

[6] = test system: P388D.1; assay: Retinol metabolism; format: in vitro ADME, mouse
Protocol: as §3, §4, §5, §6, §7

[7] = test system: 26 mammalian cells; assay: 14HRR production from 3H retinol in mammalian cell lines; format: in vitro ADME; settings: 3H retinol bound to fetal calf serum
From the text: The use of ^3 H retinol bound to fetal calf serum was used as an assay to test for P3 in other cell lines.
The use of ^3 H retinol bound to fetal calf serum was used as an assay to test for 14HRR in other cell lines.

[8] = test system: 5/2 cells; format: in vitro ADME, human
Protocol: 5/2 cells (10^6 cells in 10 ml HB 101 medium) were incubated with all-trans-[^3 H] retinol (10 uCe/ml). After 24 hours, retinoids were extracted from the washed cell pellet and unlabeled marker retinoids were added. The crude extract was loaded on an analytical reversed-phase C-18 column. Retinoids were eluted with the shown linear gradient of water/methanol/chloroform. The flow rate was 0.5 ml/min. DPM were determined with an on line scintillation counter. Reference retinoids were the all-trans forms of 0: 3,4-didehydroretinoic acid, 1: all-trans-retinoic acid, 2: 3,4-didehydroretinol, 3: retinol, 4: retinyl linoleate, 5: retinyl oleate, 6: retinyl palmitate. Shaded area corresponds to P3. Cross-hatched area corresponds to P1.
Lymphoblastoid 5/2 cells grown in the presence of 10^-6 M retinol were spiked with ^3 H-labeled retinol. After 16 hours the cell pellet was delipidated according to the method of McLean et al. and separated on a reversed phase C-18 HPLC column (FIG. 7). […] Three peaks, P1, P2 and P3, could not be immediately identified. One peak eluting at 36-39 minutes (corresponding 83% methanol 7% water) provisionally called P3, but now known as 14HRR, was unusual because unlike P1 eluting at 31-34 minutes, its relative amount increased when the retinol concentration was lowered or when retinol was given to the cells bound to RBP. […]

SMILES	expression of immediate early genes [1]	stimulation of lymph node T cells [2]	response to activating signal [3]	Total cts. ([4]; EL-4)	Ester (% of taken up retinol) ([4]; EL-4, overnight) [%]	P3 (% of taken up retinol) ([4]; EL-4, overnight) [%]	Retinol (% of taken up retinol) ([4]; EL-4, overnight) [%]	Total cts. [5]	Ester (% of taken up retinol) ([5]; overnight) [%]	P3 (% of taken up retinol) ([5]; overnight) [%]	Retinol (% of taken up retinol) ([5]; overnight) [%]	Total cts. ([6]; P388D.1)	Ester (% of taken up retinol) ([6]; P388D.1, overnight) [%]	P3 (% of taken up retinol) ([6]; P388D.1, overnight) [%]	Retinol (% of taken up retinol) ([6]; P388D.1, overnight) [%]	radioactivity peak at 14HRR (P3) position [7]	retinoids identified after 3H-retinol [8]	retinoids not detected after 3H-retinol [8]
CC(C=CC=C(C)C(O)CO)=CC=C1C(C)=CCCC1(C)C (centres unmarked) [14HRR, 14-hydroxy-4,14-retro-retinol]	facilitates the expression of immediate early genes in fibroblasts	effective over the same dose range as observed for thymocytes	responded to the activating signal															
CC1=C(/C=C/C(C)=C/C=C/C(C)=C/CO)C(C)(C)CCC1 [retinol, all-trans retinol]		dependent on the presence of retinol	responded to the activating signal	2.8 × 10^5 cts.	44	5	40	6.1 × 10^5 cts.	9	3	85	1.4 × 10^5 cts.	26	0.5	71	radioactivity peak at the position where 14HRR normally elutes; also recorded: radioactivity peak at the position where P3 normally elutes	13-cis retinol, all-trans retinol, and several retinyl esters were identified	Retinoic acid, 3,4-didehydroretinol acid as well as 3,4-didehydroretinol were not detectable
